Measurements published in ChEMBL document CHEMBL1268971, “4,5-Dihydro-1H-pyrazolo[4,3-h]quinazolines as potent and selective Polo-like kinase 1 (PLK1) inhibitors” (Bioorg Med Chem Lett, 2010).
pIC50: −log10 of the molar value. ≈ marks a conversion by molar mass, not a printed value.

Assays:
[1] = target: Serine/threonine-protein kinase PLK3 (Homo sapiens, UniProt Q9H4B4); experiment: Inhibition of PLK3
[2] = target: Serine/threonine-protein kinase PLK2 (Homo sapiens, UniProt Q9NYY3); experiment: Inhibition of PLK2
A2780 = experiment: cells; conditions: Homo sapiens, A2780, 72 h
[3] = target: Cyclin-dependent kinase 2/cyclin A (Homo sapiens, UniProt P24941); experiment: Inhibition of CDK2/Cyclin A; assay type: protein-complex assay
[4] = Solubility of the compound at pH 7; assay type: physicochemical; conditions: buffer
[5] = target: Serine/threonine-protein kinase PLK1 (Homo sapiens, UniProt P53350)
[6] = AUC (0 to infinity) in CD1 mouse at 10 mg/kg, iv administered as single dose by LC/MS/MS analysis; assay type: ADME, organism-based; set-up: time infinity, dose 10 mg/kg, route intravenous; conditions: plasma
[7] = Volume of distribution at steady state in CD1 mouse at 10 mg/kg, iv administered as single dose by LC/MS/MS analysis; assay type: ADME, organism-based; set-up: dose 10 mg/kg, route intravenous; conditions: in vivo, read-out: Vdss
[8] = Terminal half life in CD1 mouse at 10 mg/kg, iv administered as single dose by LC/MS/MS analysis; assay type: ADME, organism-based; set-up: dose 10 mg/kg, route intravenous; conditions: in vivo, read-out: beta t1/2 (converted)
[9] = Solubility of the compound at 105 Tween 80; assay type: physicochemical
[10] = Intrinsic clearance in human liver microsomes; assay type: ADME, Microsome
[11] = Cmax in CD1 mouse at 10 mg/kg, po administered as single dose by LC/MS/MS analysis; assay type: ADME, organism-based; set-up: dose 10 mg/kg, route oral; conditions: in vivo
[12] = AUC (0 to infinity) in CD1 mouse at 10 mg/kg, po administered as single dose by LC/MS/MS analysis; assay type: ADME, organism-based; set-up: time infinity, dose 10 mg/kg, route oral; conditions: plasma
[13] = target: T1, Receptor-type tyrosine-protein kinase FLT3 (Homo sapiens, UniProt P36888); experiment: Inhibition of FLT3
T1 sequence (P36888 whole entry): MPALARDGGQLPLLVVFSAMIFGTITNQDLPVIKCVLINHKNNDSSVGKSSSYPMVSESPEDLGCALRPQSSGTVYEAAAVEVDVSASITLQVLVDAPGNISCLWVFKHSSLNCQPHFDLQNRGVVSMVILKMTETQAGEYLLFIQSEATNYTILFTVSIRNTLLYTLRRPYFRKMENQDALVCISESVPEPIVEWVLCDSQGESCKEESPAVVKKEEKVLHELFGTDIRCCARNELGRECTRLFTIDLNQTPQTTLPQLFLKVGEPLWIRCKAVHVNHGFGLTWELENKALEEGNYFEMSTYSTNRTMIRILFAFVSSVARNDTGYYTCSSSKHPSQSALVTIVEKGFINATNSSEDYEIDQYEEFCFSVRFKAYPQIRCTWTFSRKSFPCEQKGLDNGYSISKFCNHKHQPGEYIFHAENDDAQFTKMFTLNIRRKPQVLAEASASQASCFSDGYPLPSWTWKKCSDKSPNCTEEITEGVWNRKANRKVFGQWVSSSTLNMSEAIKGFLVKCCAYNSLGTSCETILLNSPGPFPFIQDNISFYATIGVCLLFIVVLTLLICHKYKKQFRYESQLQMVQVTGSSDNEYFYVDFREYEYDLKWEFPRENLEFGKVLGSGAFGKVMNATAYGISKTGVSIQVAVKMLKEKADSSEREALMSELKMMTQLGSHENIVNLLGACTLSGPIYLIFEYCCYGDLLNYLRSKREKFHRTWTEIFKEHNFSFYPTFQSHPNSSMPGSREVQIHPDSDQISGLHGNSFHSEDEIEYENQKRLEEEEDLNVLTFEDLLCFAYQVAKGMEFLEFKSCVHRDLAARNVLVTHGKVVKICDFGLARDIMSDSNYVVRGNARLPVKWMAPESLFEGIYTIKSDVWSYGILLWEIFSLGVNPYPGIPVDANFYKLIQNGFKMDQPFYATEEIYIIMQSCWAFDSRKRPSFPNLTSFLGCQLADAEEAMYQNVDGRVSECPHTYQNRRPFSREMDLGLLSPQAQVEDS

[14] = target: Serine/threonine-protein kinase Nek6 (Homo sapiens, UniProt Q9HC98); experiment: Inhibition of NEK6
[15] = Inhibition of PDGFR
[16] = Oral bioavailability in CD1 mouse at 10 mg/kg administered as single dose by LC/MS/MS analysis; assay type: ADME, organism-based; conditions: in vivo
[17] = Inhibition of casein kinase 2
[18] = Permeability of the compound by PAMPA; assay type: ADME
[19] = Clearance in CD1 mouse at 10 mg/kg, iv administered as single dose by LC/MS/MS analysis; assay type: ADME, organism-based; set-up: dose 10 mg/kg, route intravenous; conditions: in vivo
[20] = target: ALK tyrosine kinase receptor (Homo sapiens, UniProt Q9UM73); experiment: Inhibition of ALK
[21] = Terminal half life in CD1 mouse at 10 mg/kg, po administered as single dose by LC/MS/MS analysis; assay type: ADME, organism-based; set-up: dose 10 mg/kg, route oral; conditions: in vivo, read-out: beta t1/2 (converted)

Serine/threonine-protein kinase Nek6, sequence (Q9HC98 whole entry): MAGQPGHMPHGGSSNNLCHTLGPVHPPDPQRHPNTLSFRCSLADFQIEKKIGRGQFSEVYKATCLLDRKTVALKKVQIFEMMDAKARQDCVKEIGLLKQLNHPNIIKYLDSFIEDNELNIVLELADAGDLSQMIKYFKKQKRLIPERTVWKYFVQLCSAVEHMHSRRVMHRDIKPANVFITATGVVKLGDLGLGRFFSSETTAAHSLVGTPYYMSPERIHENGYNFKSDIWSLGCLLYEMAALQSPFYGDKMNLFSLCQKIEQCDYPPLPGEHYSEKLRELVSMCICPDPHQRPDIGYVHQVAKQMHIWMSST
Serine/threonine-protein kinase PLK2, sequence (Q9NYY3 whole entry): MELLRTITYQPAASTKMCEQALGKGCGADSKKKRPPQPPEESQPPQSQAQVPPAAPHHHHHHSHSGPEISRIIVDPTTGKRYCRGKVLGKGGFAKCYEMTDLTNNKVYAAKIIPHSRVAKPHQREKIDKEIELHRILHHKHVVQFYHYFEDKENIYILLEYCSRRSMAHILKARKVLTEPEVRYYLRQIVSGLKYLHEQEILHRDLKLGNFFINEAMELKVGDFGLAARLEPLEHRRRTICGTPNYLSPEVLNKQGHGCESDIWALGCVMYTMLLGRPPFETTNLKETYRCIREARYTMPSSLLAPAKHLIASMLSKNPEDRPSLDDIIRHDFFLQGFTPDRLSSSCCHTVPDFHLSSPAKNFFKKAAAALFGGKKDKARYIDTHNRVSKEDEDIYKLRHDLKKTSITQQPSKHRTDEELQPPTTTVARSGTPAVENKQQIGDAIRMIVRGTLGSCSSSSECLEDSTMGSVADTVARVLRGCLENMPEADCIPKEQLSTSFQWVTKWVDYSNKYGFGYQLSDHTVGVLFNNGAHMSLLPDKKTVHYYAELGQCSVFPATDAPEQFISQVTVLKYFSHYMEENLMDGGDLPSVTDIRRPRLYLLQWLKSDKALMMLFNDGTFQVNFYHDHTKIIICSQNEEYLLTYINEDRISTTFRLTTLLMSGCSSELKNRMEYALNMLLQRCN
Serine/threonine-protein kinase PLK1, sequence (P53350 whole entry): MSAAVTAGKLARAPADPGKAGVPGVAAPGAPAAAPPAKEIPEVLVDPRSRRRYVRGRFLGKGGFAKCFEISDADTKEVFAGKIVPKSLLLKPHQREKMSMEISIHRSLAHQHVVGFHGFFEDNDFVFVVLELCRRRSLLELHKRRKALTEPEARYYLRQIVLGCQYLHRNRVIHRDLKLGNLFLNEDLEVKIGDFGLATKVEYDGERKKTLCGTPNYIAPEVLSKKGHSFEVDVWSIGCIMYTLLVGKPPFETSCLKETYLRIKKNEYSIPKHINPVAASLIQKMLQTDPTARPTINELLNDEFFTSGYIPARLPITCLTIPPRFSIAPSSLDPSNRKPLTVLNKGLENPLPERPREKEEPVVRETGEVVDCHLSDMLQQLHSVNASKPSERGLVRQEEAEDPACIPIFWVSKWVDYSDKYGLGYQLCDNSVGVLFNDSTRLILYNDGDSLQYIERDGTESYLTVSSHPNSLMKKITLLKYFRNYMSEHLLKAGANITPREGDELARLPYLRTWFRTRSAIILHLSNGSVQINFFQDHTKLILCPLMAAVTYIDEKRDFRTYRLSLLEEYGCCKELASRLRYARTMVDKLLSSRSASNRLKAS
ALK tyrosine kinase receptor, sequence (Q9UM73 whole entry): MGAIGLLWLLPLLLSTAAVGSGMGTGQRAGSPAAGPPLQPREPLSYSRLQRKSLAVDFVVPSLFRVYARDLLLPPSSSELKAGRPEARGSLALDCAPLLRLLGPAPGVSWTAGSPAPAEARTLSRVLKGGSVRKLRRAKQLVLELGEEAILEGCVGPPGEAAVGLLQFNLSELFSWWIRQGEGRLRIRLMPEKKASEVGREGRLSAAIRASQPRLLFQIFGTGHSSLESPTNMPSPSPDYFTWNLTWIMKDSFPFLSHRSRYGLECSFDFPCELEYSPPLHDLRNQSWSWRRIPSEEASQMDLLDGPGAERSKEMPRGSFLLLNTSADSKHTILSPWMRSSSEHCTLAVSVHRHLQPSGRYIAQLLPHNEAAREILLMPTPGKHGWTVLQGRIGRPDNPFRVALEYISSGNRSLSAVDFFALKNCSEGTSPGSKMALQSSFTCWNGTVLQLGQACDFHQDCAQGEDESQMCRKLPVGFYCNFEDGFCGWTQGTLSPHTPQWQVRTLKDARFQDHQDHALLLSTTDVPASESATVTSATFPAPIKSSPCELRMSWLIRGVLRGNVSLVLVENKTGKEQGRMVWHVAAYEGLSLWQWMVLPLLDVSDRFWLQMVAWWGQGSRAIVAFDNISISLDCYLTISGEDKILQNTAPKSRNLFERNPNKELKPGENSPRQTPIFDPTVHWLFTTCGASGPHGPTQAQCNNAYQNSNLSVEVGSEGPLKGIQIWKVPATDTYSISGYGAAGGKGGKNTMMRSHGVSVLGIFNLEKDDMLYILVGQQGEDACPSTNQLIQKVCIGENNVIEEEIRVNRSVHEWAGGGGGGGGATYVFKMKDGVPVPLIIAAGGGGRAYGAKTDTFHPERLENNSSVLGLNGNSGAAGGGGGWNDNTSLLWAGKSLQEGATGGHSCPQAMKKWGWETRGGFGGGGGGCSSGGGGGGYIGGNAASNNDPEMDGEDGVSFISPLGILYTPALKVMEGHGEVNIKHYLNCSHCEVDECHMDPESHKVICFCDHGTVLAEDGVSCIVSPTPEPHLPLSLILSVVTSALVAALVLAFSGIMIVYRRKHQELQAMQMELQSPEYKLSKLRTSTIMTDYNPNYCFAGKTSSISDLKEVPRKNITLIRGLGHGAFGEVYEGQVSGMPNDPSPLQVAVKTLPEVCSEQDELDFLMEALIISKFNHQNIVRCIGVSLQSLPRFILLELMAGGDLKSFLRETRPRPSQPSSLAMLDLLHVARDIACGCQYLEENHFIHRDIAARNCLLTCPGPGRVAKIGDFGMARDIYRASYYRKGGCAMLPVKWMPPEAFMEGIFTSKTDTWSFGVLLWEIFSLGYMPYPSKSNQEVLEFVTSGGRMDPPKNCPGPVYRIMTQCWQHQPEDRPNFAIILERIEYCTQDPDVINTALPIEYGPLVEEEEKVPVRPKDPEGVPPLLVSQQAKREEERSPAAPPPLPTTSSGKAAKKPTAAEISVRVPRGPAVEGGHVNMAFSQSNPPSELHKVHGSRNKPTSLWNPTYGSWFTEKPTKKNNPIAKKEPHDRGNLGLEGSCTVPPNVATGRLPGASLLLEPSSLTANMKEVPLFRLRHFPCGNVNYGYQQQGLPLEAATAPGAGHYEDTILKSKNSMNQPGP
Serine/threonine-protein kinase PLK3, sequence (Q9H4B4 whole entry): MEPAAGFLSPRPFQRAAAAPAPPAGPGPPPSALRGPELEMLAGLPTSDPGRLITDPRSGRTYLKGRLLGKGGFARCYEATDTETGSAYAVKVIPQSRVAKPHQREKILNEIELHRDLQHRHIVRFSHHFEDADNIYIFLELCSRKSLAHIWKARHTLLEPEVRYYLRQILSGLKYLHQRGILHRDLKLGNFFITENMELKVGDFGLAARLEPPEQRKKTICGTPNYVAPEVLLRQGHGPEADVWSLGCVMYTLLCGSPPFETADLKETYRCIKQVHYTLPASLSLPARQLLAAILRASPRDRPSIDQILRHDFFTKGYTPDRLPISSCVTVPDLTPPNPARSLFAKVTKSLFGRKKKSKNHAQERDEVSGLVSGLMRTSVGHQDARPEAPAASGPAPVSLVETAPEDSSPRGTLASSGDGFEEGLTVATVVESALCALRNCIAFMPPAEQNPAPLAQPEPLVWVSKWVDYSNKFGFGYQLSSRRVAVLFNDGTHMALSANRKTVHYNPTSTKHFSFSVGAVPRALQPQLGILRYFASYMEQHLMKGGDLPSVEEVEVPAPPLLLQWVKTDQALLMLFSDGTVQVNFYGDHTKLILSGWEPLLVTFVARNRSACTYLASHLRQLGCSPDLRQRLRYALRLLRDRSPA

SMILES | pIC50 [1] | pIC50 [2] | pIC50 (A2780) | pIC50 [3] | solubility [4] | pIC50 [5] | other results
CCn1nc(C(N)=O)c2c1-c1nc(Nc3cc(N4CCN(C)CC4)ccc3OC(F)(F)F)ncc1CC2 | < 5.00 | < 5.00 | 7.96 | < 5.00 | 21 µM (≈ 10.8 µg/mL) | 8.22 | –
CCN1CCN(c2ccc(OC(F)(F)F)c(Nc3ncc4c(n3)-c3c(c(C(N)=O)nn3C)CC4)c2)CC1 | – | 5.47 | 7.47 | < 5.00 | 33 µM (≈ 17 µg/mL) | – | –
Cn1nc(C(N)=O)c2c1-c1nc(Nc3cc(N4CCN(C(=O)OC(C)(C)C)CC4)ccc3OC(F)(F)F)ncc1CC2 | – | 6.11 | 5.89 | 5.95 | – | – | –
CN1C(C)(C)CC(Nc2ccc(OC(F)(F)F)c(Nc3ncc4c(n3)-c3c(c(C(N)=O)nn3C)CC4)c2)CC1(C)C | < 5.00 | < 5.00 | 5.76 | 5.52 | 147 µM (≈ 84.2 µg/mL) | 6.02 | –
CN1CCN(c2ccc(OC(F)(F)F)c(Nc3ncc4c(n3)-c3c(c(C(N)=O)nn3CCF)CC4)c2)CC1 | < 5.00 | < 5.00 | 7.85 | < 5.00 | 18 µM (≈ 9.62 µg/mL) | 8.40 | AUC(0-inf) [6]: 10.2 µM·h; Vd [7]: 1.53 L/kg; half-life [8]: 44.4 min; solubility [9]: 2100 µg/mL (≈ 3.93 mM); CLint scaled [10]: 56.1 mL/min/kg; Cmax [11]: 260 nM; AUC(0-inf) [12]: 0.192 µM·h; pIC50 [13]: 6.67; pIC50 [14]: < 5.00; pIC50 [15]: < 5.00; bioavailability [16]: 2%; pIC50 [17]: 6.87; Papp [18]: 50 ×10⁻⁶ cm/s; clearance [19]: 40.3 mL/min/kg; pIC50 [20]: < 5.00
CN1CCN(c2ccc(OC(F)(F)F)c(Nc3ncc4c(n3)-c3c(c(C(N)=O)nn3C(c3ccccc3)(c3ccccc3)c3ccccc3)CC4)c2)CC1 | – | – | 5.68 | < 5.00 | < 1 µM | < 5.00 | –
Cn1nc(C(N)=O)c2c1-c1nc(Nc3cc(N)ccc3OC(F)(F)F)ncc1CC2 | – | 5.89 | 5.97 | 5.93 | 31 µM (≈ 13 µg/mL) | – | –
Cn1nc(C(N)=O)c2c1-c1nc(Nc3cc(N4CC[N+](C)([O-])CC4)ccc3OC(F)(F)F)ncc1CC2 | – | < 5.00 | 6.11 | < 5.00 | > 225 µM | – | –
CN1CCCN(c2ccc(OC(F)(F)F)c(Nc3ncc4c(n3)-c3c(c(C(N)=O)nn3C)CC4)c2)CC1 | < 5.00 | < 5.00 | 6.03 | < 5.00 | 95 µM (≈ 49.1 µg/mL) | 7.60 | –
Cn1nc(C(N)=O)c2c1-c1nc(Nc3cc(N4CCC(N5CCCC5)CC4)ccc3OC(F)(F)F)ncc1CC2 | < 5.00 | < 5.00 | 6.23 | < 5.00 | 133 µM (≈ 74 µg/mL) | 7.48 | –
CN1CCCC1CCNc1ccc(OC(F)(F)F)c(Nc2ncc3c(n2)-c2c(c(C(N)=O)nn2C)CC3)c1 (stereo not drawn) | – | 6.37 | 5.59 | 6.01 | 157 µM (≈ 83.3 µg/mL) | – | –
Cn1nc(C(N)=O)c2c1-c1nc(Nc3ccccc3OC(F)(F)F)ncc1CC2 | 7.49 | 6.69 | 5.19 | 5.75 | < 1 µM | 6.93 | –

Continued, in another order:

pIC50 [1] | pIC50 [2] | pIC50 (A2780) | pIC50 [3] | solubility [4] | pIC50 [5] | SMILES | other results
< 5.00 | < 5.00 | 7.12 | < 5.00 | 136 µM (≈ 74.3 µg/mL) | 7.82 | COCCn1nc(C(N)=O)c2c1-c1nc(Nc3cc(N4CCN(C)CC4)ccc3OC(F)(F)F)ncc1CC2 | –
< 5.00 | < 5.00 | 7.03 | < 5.00 | 12 µM (≈ 5.86 µg/mL) | 8.40 | CN1CCN(c2ccc(OC(F)(F)F)c(Nc3ncc4c(n3)-c3[nH]nc(C(N)=O)c3CC4)c2)CC1 | –
< 5.00 | < 5.00 | 7.51 | 5.70 | 9 µM (≈ 4.96 µg/mL) | – | CN1CCN(c2ccc(OC(F)(F)F)c(Nc3ncc4c(n3)-c3c(c(C(N)=O)nn3CCCl)CC4)c2)CC1 | –
< 5.00 | < 5.00 | < 5.00 | < 5.00 | 48 µM (≈ 25.7 µg/mL) | 5.57 | Cn1nc(C(N)=O)c2c1-c1nc(Nc3cc([N+]4([O-])CC[N+](C)([O-])CC4)ccc3OC(F)(F)F)ncc1CC2 (stereo not drawn) | –
– | 6.12 | 5.65 | 6.38 | 171 µM (≈ 83.5 µg/mL) | – | Cn1nc(C(N)=O)c2c1-c1nc(Nc3cc(NC4CCNC4)ccc3OC(F)(F)F)ncc1CC2 (stereo not drawn) | –
5.84 | < 5.00 | 7.52 | < 5.00 | 114 µM (≈ 55.7 µg/mL) | – | Cn1nc(C(N)=O)c2c1-c1nc(Nc3cc(N4CCNCC4)ccc3OC(F)(F)F)ncc1CC2 | solubility [9]: 1100 µg/mL (≈ 2.25 mM); CLint scaled [10]: 6.9 mL/min/kg; pIC50 [13]: 6.71; pIC50 [14]: 6.23; pIC50 [15]: < 5.00; pIC50 [17]: 7.23; Papp [18]: 7.22 ×10⁻⁶ cm/s; pIC50 [20]: < 5.00
– | 6.72 | 6.27 | 6.21 | 85 µM (≈ 51.1 µg/mL) | – | Cn1nc(C(N)=O)c2c1-c1nc(Nc3cc(N4CCN(C(=O)N5CCNCC5)CC4)ccc3OC(F)(F)F)ncc1CC2 | –
– | 5.47 | 5.96 | 5.99 | > 225 µM | – | CN1CCC(Nc2ccc(OC(F)(F)F)c(Nc3ncc4c(n3)-c3c(c(C(N)=O)nn3C)CC4)c2)CC1 | –
6.74 | 6.47 | 8.10 | < 5.00 | 8 µM (≈ 4.12 µg/mL) | – | C=Cn1nc(C(N)=O)c2c1-c1nc(Nc3cc(N4CCN(C)CC4)ccc3OC(F)(F)F)ncc1CC2 | AUC(0-inf) [6]: 5.37 µM·h; Vd [7]: 2.58 L/kg; half-life [8]: 53.4 min; solubility [9]: > 3200 µg/mL; CLint scaled [10]: 28.8 mL/min/kg; Cmax [11]: 610 nM; AUC(0-inf) [12]: 2.15 µM·h; pIC50 [13]: 6.65; pIC50 [14]: 6.47; pIC50 [15]: 5.84; half-life [21]: 155 min; bioavailability [16]: 29%; pIC50 [17]: 7.16; Papp [18]: 19.6 ×10⁻⁶ cm/s; clearance [19]: 57.3 mL/min/kg; pIC50 [20]: 5.62
